Data published in US7666642B2, “Nematode fatty acid desaturase-like sequences” (Divergence, Inc., priority 2001, dated 2010).
Where two headings read alike, the source gives them in different places.

Legend:
[1] = system: Δ9 fatty acid desaturases; details: cited from earlier work
C. elegans [2] = test: Inhibitor studies: C. elegans cultures on NGM plates containing fatty acid methyl esters; format: in vivo; details: for Lifecycle impairments of C. elegans cultures: methyl ester on NGM plates with OP50 E. coli
Text: Vernolic acid and ricinoleic acid are naturally occurring plant-produced fatty acid homologs that we predict to be specific inhibitors of Δ12 FAT enzymes. The addition of these compounds to living cultures of C. elegans is expected to mimic the effects of the Δ12 FAT RNAi experiments since, in each case, the phenotype observed should derive from the inhibition of the nematode Δ12 FAT. To explore this possibility, C. elegans cultures were started from eggs on NGM plates containing their E. coli food source and one of either 3 mM ricinolcic acid methyl ester or 3 mM vernolic acid methyl ester. Total eggs layed and hatch-rates of F1 and F2 individuals were followed and compared to nematode cultures grown in the presence of control fatty acids oleic acid methyl ester and linoleic acid methyl ester. C. elegans L4 larvae were added to NGM plates containing OP50 E. coli and one of the following methyl esters: oleic acid, linolcic acid, ricinoleic acid, vernolic acid or none. C. elegans L4 larvae growing on plates containing ricinoleic acid (FIG. 11) or vernolic acid (FIG. 12) methyl esters developed to mature adults more slowly than those on control plates containing oleic acid (FIG. 9) or linoleic acid (FIG. 10) and produced very few embryos (eggs).

C. elegans [3] = test: Rescue of C. elegans Δ12 FAT RNAi feeding phenotype by fatty acid methyl esters; format: in vivo; details: 3 mM added to the NGM media
Text: RNAi by feeding: C. elegans can be grown on lawns of E. coli genetically engineered to produce double stranded RNA (dsRNA) designed to inhibit Δ12 FAT expression. Briefly, E. coli were transformed with a genomic fragment of a portion of the C. elegans Δ12 FAT gene sequence, specifically a fragment 651 nucleotides long, containing the entire first exon and terminating just before the conserved intron splice junction between the first exon and first intron. This construct encodes approximately the first 217 amino acids of the C. clegans Δ12 FAT gene. The 651 nucleotide genomic fragment was cloned into an E. coli expression vector between opposing T7 polymerase promoters. The clone was then transformed into a strain of E. coli that carries an IPTG-inducible T7 polymerase. As a control, E. coli was transformed with a gene encoding the Green Fluorescent Protein (GFP).
Feeding RNAi was initiated from C. elegans eggs or from C. elegans L4s.
The C. elegans Δ12 fatty acid desaturase (Fat2 protein) converts the mono-unsaturated oleic acid to the di-unsaturated fatty acid linoleic acid. The […] FAT RNAi prevents expression of the Δ12 fatty acid desaturase, which is predicted to cause a decrease in levels of linoleic acid in the nematode, leading to arrested development and death.

[4] = system: everted hamster jejunal and ileal segments; details: cited from earlier work
plants [5] = test: Toxicity to plants (phytotoxicity); details: at least some plants
plants [6] = details: in vivo
[7] = system: isolated intestinal epithelial cells; details: cited from earlier work
[8] = 3 mM methyl ester on NGM plates with OP50 E. coli

Structure (SMILES): CCCCCCCCC1=C(CCCCCCCC(=O)O)C1 [Sterculic acid]
- Inhibition of Δ9 fatty acid desaturases [1]: potent inhibitor

Structure (SMILES): CCCCCCCC/C=C\CCCCCCCC(=O)OC [oleic acid methyl ester, reference compound]
- Lifecycle impairments of C. elegans cultures (C. elegans [2]): no dramatic lifecycle impairments
- Rescue of the Δ12 FAT RNAi feeding phenotype (C. elegans [3]): does not rescue

Structure (SMILES): CCCCCCCCC1=C(CCCCCCC(=O)O)C1 [malvalate]
- Inhibition of Δ9 fatty acid desaturases [1]: equally inhibitory

Structure (SMILES): CCCCCC[C@@H](O)C/C=C\CCCCCCCC(=O)OC [ricinoleic acid methyl ester]
- Effect on water and electrolyte absorption [4]: ineffective
- Embryos (eggs) produced (C. elegans [2]; [8]): very few
- Phenotype of young larvae from embryos that hatched (C. elegans [2]; [8]): severe arrested phenotypes and did not develop to adults
- Development of L4 larvae to mature adults (C. elegans [2]; 3 mM methyl ester on NGM plates with OP50 E. coli, compared with oleic or linoleic acid control plates): more slowly
- Nematicidal activity (C. elegans [2]; methyl esters of fatty acid analogs): nematicidal
- Toxicity to plants (plants [5]): do not appear to be toxic (or are very much less toxic)

Structure (SMILES): CCCCCC[C@@H](O)C/C=C/CCCCCCCC(=O)OC [ricinelaidic acid methyl ester]
- Toxicity to plants (plants [5]): do not appear to be toxic (or are very much less toxic)

Structure (SMILES): CCCCCC#CC/C=C\CCCCCCCC(=O)OC [crepenynic acid methyl ester]
- Toxicity to plants (plants [6]): do not appear to be toxic (or are very much less toxic)

Structure (SMILES): CCCCCC[C@@H](O)C/C=C\CCCCCCCC(=O)O [Ricinoleic acid, reference compound]
- Cytotoxicity [7]: cytotoxic
- Effect on water and electrolyte absorption [4]: inhibitory effect

Structure (SMILES): CCCCC/C=C\C/C=C\CCCCCCCC(=O)OC [linoleic acid methyl ester, reference compound]
- Lifecycle impairments of C. elegans cultures (C. elegans [2]): no dramatic lifecycle impairments
- Rescue of the Δ12 FAT RNAi feeding phenotype (C. elegans [3]): partial rescue
